Reference: ChEMBL document CHEMBL4680187, “Optimization of EphA2 antagonists based on a lithocholic acid core led to the identification of UniPR505, a new 3α-carbamoyloxy derivative with antiangiogenetic properties” (Eur J Med Chem, 2020)
The source made the active and inactive calls. The calls are words filed in the database; no cut-off is given here.

How the values were obtained:
Ephrin type-B receptor 1 = molecular target: T1, Ephrin type-B receptor 1 (Rattus norvegicus, UniProt P09759); experiment: Displacement of biotinylated ephrin-B1-Fc from rat EphB1 Fc preincubated for 1 hr followed by ephrin-B1-FC addition and measured after 4 hrs by ELISA
T1 sequence (P09759 whole entry): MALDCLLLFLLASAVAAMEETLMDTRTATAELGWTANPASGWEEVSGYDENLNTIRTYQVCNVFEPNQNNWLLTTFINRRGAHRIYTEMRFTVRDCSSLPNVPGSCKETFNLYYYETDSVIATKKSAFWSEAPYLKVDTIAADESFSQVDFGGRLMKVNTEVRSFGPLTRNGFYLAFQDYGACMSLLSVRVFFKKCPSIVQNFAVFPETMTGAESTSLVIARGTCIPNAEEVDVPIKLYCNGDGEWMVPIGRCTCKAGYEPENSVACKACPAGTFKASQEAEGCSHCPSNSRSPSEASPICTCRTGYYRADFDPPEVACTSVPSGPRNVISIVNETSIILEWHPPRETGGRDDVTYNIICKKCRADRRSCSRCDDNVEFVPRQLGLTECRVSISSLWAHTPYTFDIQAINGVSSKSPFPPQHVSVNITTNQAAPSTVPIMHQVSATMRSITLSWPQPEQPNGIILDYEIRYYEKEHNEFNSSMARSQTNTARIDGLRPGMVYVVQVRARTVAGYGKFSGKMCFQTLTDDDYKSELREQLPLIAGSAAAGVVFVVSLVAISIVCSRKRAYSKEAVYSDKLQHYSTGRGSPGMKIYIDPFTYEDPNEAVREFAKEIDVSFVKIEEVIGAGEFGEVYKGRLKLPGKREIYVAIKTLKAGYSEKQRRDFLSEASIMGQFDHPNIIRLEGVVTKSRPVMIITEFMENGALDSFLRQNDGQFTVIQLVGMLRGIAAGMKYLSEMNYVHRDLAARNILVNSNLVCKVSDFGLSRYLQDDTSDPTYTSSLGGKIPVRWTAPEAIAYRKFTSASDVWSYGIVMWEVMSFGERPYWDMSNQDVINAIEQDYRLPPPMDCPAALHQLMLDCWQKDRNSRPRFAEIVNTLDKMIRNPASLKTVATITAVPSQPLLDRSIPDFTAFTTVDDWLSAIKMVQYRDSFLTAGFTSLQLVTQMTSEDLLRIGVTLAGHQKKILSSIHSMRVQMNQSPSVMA

Chorioallantoic membrane = experiment: Antiangiogenic activity in Leghorn chicken fertilized egg chorioallantoic membrane assessed as reduction in unstimulated neovascularization at 10 uM measured after 3 days by CAM assay; format: functional, tissue-based; conditions: Gallus gallus, time 3.0 day
HUVEC = experiment: Cytotoxicity against HUVEC cells after 2 to 16 hrs by LDH assay; format: cell-based; conditions: human, time 2-16 hrs
Ephrin type-A receptor 4 = Ephrin type-A receptor 4 (Mus musculus, UniProt Q03137); experiment: Displacement of biotinylated ephrin-A1-Fc from mouse EphA4 Fc preincubated for 1 hr followed by ephrin-A1-FC addition and measured after 4 hrs by ELISA
Ephrin type-A receptor 4, sequence (Q03137 whole entry): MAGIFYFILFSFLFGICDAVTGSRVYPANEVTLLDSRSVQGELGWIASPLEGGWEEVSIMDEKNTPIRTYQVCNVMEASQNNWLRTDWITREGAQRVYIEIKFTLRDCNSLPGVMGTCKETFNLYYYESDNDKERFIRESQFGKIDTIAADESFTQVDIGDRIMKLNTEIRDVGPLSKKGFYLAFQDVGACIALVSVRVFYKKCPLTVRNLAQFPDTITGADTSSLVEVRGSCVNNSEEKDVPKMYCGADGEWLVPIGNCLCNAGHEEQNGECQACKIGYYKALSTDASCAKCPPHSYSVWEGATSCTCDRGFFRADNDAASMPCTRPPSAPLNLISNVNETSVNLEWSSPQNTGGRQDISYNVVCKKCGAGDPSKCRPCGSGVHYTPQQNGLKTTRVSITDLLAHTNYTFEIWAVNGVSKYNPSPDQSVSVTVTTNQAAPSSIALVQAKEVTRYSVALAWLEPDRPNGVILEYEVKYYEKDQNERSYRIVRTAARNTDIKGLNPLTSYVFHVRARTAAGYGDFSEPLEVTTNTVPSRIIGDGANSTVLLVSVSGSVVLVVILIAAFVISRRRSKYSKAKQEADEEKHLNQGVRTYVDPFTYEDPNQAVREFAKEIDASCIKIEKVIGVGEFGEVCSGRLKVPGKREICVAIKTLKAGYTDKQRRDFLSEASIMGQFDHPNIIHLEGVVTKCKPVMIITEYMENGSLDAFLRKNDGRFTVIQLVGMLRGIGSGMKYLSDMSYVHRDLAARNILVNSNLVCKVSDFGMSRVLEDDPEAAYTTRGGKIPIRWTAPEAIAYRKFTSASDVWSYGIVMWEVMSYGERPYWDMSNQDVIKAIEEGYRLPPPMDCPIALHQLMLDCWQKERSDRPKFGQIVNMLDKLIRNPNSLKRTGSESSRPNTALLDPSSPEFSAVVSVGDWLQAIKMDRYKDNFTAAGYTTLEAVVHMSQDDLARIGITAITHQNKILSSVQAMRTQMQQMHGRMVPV

Ephrin type-B receptor 3 = molecular target: T2, Ephrin type-B receptor 3 (Mus musculus, UniProt P54754); experiment: Displacement of biotinylated ephrin-B1-Fc from mouse EphB3 Fc preincubated for 1 hr followed by ephrin-B1-FC addition and measured after 4 hrs by ELISA
T2 sequence (P54754 whole entry): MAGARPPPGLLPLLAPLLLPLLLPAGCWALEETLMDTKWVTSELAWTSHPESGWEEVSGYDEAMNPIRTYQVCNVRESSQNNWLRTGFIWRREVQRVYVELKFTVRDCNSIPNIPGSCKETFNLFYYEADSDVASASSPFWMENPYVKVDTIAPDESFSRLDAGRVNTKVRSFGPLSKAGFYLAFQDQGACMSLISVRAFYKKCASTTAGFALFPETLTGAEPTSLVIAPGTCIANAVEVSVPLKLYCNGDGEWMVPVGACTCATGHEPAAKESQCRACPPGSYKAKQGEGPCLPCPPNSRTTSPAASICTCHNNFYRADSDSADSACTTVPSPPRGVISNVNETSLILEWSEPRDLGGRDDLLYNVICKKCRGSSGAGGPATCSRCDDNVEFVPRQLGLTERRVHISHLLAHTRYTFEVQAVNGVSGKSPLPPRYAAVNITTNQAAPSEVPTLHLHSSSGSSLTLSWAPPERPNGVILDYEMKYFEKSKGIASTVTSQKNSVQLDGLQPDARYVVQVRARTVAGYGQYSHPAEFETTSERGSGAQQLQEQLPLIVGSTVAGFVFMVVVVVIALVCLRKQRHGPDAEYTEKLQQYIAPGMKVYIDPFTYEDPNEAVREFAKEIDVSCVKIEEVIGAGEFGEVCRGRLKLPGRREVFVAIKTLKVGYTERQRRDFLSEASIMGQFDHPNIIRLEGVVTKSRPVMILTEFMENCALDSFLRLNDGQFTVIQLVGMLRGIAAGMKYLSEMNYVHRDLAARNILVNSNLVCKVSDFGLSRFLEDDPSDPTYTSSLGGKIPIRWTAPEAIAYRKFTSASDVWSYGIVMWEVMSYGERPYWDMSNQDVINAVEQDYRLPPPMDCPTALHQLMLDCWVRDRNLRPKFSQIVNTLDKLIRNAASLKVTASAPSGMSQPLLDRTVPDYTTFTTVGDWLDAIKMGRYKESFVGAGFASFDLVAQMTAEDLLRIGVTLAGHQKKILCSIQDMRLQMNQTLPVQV

CCNC(=O)O[C@@H]1CC[C@@]2(C)[C@H](CC[C@@H]3[C@@H]2CC[C@]2(C)[C@@H]([C@H](C)CCC(=O)N[C@H](CC(=O)O)Cc4c[nH]c5ccccc45)CC[C@@H]32)C1
IC50 (Ephrin type-B receptor 1): > 30 µM | Activity (Chorioallantoic membrane): inactive | Activity (HUVEC): Non-Toxic | IC50 (Ephrin type-A receptor 4): 6.4 µM | IC50 (Ephrin type-B receptor 3): 11 µM
